The results in this text go back to patent US20220402948A1, “EGFR INHIBITOR, COMPOSITION AND PREPARATION METHOD THEREFOR” (BETTA PHARMACEUTICALS CO., LTD., priority 2019, published 2022).

Experiment [1] concerns the target EGFR WT (Homo sapiens, UniProt P00533). In words: EGFR WT kinase test (mobility variation analysis, Caliper EZ Reader). It counts as biochemical. The following applies: kinase enzymatic activity, Table 1. A digest of the protocol: (§1)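 Read-out is substrate-to-product conversion by mobility shift, stopped after incubation at room temperature with ATP and substrate, following a 10-minute room-temperature compound–enzyme pre-incubation. IC50 obtained by four-parameter variable-slope fitting of inhibition normalized between enzyme-free and uninhibited controls.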

Experiment [2] addresses Ba/F3-EGFR wild-type cell line (Homo sapiens, UniProt P00533). Briefly: Ba/F3-EGFR wild-type cell proliferation assay (CellTiter Glo, 72 hours). It counts as cell-based. Particulars: Table 2, read-out: EGFR WT IC50. A digest of the protocol:
(§2)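 Ba/F3 cells stably overexpressing wild-type EGFR or EGFR Δ19del/T790M/C797S were seeded at 2000 cells/well and incubated 72 h with compound. Viability was read by CellTiter-Glo luminescence, and IC50 came from a four-parameter logistic fit of signal against log concentration.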
In general terms: ATP-based viability assays read luminescence as a measure of living cells.

Experiment [3] deals with EGFRΔ19del/T790M/C797S (Homo sapiens, UniProt P00533, T790M/C797S, form not given). In words: EGFR Δ19del/T790M/C797S kinase test (mobility variation analysis, Caliper EZ Reader). It counts as biochemical. The following applies: kinase enzymatic activity, Table 1. A digest of the protocol:
as §1

Experiment [4] concerns A431. In words: A431 cell proliferation assay (CellTiter Glo, 72 hours). In kind it is cell-based. Particulars: Homo sapiens, A-431, 72 h, cell proliferation, A431, 72 hours, Table 2; read-out: A431 IC50. A digest of the protocol: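 Luminescence (CellTiter-Glo) after 72 h treatment gives viability, fitted by nonlinear regression to yield IC50. Cells seeded at 2000 per well; nine 3-fold concentrations from 1000 nM, DMSO final 0.1% (0.5% for certain compounds).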

For experiment [5], the target named is Ba/F3 cells with EGFR Δ19del/T790M/C797S mutation gene stably overexpressed (Homo sapiens, UniProt P00533, T790M/C797S, cells depend on it, form not given). In words: Ba/F3-Δ19del/T790M/C797S cell proliferation assay (CellTiter Glo, 72 hours). It counts as cell-based. Particulars: Table 2, read-out: EGFR Δ19del/T790M/C797S IC50. A digest of the protocol: as §2

Experiment [6] concerns the target IGF1R (Homo sapiens, UniProt P08069). Briefly: IGF1R kinase test (mobility variation analysis, Caliper EZ Reader). In kind it is biochemical. The following applies: kinase enzymatic activity, Table 1; read-out: EGFR IGF1R IC50. A digest of the protocol:
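Mobility-shift readout of substrate conversion, normalised to positive (no compound) and negative (no kinase) controls, gives % inhibition and IC50 by four-parameter fit. Compounds, 3-fold dilutions over 10 concentrations starting at 3000 nM, preincubated 10 min with kinase before ATP/substrate start; room temperature.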

Each structure is given as a SMILES string. Where only a bound is given, the exact number is not on record here.

Sequence of Ba/F3 cells with EGFR Δ19del/T790M/C797S mutation gene stably overexpressed (P00533 with tags, fused parts or gaps DEL746-750/T790M/C797S, form open): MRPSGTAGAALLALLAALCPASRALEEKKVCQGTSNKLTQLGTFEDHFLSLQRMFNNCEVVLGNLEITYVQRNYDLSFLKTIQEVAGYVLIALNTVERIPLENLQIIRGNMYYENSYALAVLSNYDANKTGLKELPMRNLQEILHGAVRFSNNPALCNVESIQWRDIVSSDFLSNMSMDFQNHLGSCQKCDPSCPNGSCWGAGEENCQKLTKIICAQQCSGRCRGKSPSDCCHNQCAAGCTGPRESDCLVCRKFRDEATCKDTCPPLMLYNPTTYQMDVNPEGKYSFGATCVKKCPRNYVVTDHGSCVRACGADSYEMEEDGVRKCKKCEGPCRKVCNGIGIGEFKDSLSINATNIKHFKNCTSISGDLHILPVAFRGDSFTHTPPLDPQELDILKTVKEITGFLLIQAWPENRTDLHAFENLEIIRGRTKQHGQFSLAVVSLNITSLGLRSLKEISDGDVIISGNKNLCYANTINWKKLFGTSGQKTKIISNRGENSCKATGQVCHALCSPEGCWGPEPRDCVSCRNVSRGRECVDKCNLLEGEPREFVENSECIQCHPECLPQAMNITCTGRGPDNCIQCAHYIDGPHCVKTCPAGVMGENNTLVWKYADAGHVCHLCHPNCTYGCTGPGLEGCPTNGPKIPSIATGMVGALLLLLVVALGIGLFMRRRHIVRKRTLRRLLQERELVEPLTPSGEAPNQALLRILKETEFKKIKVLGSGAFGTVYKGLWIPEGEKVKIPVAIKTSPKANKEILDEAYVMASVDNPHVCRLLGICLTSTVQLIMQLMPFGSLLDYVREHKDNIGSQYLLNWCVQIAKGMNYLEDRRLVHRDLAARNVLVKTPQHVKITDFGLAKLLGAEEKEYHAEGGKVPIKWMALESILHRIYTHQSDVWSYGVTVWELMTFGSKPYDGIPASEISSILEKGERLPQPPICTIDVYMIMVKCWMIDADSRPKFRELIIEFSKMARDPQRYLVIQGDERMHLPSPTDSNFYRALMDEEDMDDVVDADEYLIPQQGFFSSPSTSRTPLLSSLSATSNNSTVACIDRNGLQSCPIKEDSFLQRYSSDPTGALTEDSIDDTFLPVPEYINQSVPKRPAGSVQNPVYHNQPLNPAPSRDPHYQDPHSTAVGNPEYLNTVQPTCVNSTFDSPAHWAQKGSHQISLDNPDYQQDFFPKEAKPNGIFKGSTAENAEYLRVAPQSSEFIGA
Sequence of EGFRΔ19del/T790M/C797S (P00533 with tags, fused parts or gaps DEL746-750/T790M/C797S, form open): as above
Sequence of IGF1R (P08069 31-1367, species assumed): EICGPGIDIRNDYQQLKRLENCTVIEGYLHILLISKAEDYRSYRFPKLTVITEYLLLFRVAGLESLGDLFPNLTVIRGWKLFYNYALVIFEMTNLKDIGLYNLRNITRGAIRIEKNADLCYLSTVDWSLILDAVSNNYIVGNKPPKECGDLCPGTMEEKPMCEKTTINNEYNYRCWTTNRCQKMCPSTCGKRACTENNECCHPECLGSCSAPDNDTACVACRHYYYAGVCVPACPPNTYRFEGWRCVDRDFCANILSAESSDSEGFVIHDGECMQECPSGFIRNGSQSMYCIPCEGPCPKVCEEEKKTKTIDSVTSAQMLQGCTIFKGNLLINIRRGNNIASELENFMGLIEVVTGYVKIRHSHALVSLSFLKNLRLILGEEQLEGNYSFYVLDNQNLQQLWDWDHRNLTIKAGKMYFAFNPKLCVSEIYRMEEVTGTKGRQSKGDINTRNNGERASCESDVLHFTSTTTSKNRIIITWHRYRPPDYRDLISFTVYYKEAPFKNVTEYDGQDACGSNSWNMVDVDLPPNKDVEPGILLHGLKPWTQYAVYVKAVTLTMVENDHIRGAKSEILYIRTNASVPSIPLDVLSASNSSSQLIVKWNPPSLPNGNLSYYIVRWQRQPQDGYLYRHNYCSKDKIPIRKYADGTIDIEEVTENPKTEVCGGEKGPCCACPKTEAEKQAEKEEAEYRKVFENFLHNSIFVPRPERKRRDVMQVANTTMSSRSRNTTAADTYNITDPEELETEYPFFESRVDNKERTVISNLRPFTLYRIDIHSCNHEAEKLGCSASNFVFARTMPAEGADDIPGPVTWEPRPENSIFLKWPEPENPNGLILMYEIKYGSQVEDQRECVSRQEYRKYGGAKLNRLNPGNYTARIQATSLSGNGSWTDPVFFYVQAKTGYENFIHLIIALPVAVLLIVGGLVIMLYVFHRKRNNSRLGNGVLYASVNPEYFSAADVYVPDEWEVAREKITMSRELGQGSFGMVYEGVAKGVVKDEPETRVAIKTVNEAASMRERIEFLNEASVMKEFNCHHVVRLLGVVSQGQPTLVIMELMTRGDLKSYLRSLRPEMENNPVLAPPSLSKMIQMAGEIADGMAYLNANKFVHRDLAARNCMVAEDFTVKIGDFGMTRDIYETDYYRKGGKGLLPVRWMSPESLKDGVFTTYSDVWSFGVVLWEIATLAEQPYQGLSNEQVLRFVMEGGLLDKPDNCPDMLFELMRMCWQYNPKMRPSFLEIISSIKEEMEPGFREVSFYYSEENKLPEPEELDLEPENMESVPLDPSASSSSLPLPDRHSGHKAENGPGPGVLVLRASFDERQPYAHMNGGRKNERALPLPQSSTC
Sequence of Ba/F3-EGFR wild-type cell line (P00533 whole entry, stated change not applied): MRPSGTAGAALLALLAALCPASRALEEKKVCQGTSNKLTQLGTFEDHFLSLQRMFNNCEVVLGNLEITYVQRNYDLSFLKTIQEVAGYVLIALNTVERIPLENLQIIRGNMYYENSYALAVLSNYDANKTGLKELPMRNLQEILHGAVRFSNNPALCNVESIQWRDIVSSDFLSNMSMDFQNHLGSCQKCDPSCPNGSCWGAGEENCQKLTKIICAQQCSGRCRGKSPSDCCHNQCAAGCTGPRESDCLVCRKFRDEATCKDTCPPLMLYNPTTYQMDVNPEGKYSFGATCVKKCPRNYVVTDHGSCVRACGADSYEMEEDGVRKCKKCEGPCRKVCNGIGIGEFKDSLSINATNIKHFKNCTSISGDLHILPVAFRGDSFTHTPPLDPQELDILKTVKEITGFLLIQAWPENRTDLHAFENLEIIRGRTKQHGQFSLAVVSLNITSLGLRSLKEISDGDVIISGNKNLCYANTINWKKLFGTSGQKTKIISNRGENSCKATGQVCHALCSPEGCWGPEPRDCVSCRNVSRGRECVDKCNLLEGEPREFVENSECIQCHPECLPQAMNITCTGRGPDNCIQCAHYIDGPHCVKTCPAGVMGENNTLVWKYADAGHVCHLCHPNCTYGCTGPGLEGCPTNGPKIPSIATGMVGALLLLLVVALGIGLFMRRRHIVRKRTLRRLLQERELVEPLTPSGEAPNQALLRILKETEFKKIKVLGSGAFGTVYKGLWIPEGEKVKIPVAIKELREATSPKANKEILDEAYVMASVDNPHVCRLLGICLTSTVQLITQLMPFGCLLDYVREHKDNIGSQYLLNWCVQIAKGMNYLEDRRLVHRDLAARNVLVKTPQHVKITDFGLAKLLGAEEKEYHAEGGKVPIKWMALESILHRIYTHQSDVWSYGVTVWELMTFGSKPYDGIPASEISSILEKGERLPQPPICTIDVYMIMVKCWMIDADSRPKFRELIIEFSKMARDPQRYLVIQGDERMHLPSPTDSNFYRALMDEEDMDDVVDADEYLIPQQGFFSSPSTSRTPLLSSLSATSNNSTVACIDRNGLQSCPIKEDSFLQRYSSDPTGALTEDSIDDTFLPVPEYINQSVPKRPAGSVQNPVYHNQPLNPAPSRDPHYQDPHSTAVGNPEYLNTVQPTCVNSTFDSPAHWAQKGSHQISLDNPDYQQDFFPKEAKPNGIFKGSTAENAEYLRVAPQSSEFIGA

On to `COc1cnn(-c2ccc(Nc3nc(Nc4cc(OC)c(N5CCC(O)CC5)cc4C)ncc3Br)c(P(C)(C)=O)c2)c1` [Compound K-039, (2-((5-Bromo-2-((4-(4-hydroxypiperidin-1-yl)-5-methoxy-2-methylphenyl)amino)pyrimidin-4-yl)amino)-5-(4-methoxy-1H-pyrazol-1-yl)phenyl)dimethylphosphine oxide], for which the IC50 (commonly the concentration needed to halve the response being measured) in experiment [1] was 14.3 nM; in experiment [3] it was 0.1 nM; in experiment [4], greater than 10000 nM; in experiment [6], 45.6 nM. Further, the GI50 stood at 523 nM in experiment [2] and 27.5 nM in experiment [5].
In the case of `CCc1cc(Nc2ncc(Br)c(Nc3ccc(-c4cnn(C)n4)cc3P(C)(C)=O)n2)c(OC)cc1N1CCC(N2CCOCC2)CC1` [Compound K-040, (2-((5-Bromo-2-((5-ethyl-2-methoxy-4-(4-morpholinopiperidin-1-yl)phenyl)amino)pyrimidin-4-yl)amino)-5-(2-methyl-2H-1,2,3-triazol-4-yl)phenyl)dimethylphosphine oxide], the IC50 in experiment [1] turned out to be 24.5 nM; in experiment [3], 0.3 nM; in experiment [4], 6630 nM; in experiment [6], 134 nM. Further, the GI50 was 302 nM in experiment [2] and 14.5 nM in experiment [5].
Take `CCc1cc(Nc2ncc(Br)c(Nc3ccc(-c4cnn(C)c4)c(OC)c3P(C)(C)=O)n2)c(OC)cc1N1CCC(N2CCN(C)CC2)CC1` [Compound K-041, (6-((5-Bromo-2-((5-ethyl-2-methoxy-4-(4-(4-methylpiperazin-1-yl)piperidin-1-yl)phenyl)amino)pyrimidin-4-yl)amino)-2-methoxy-3-(1-methyl-1H-pyrazol-4-yl)phenyl)dimethylphosphine oxide]: the IC50 was determined as 12.2 nM in experiment [1], 0.4 nM in experiment [3], 317 nM in experiment [4] and 14.7 nM in experiment [6]. Moreover, the GI50 in experiment [2] was 147 nM; in experiment [5] it was 15.8 nM.
As for `CCc1cc(Nc2ncc(Br)c(Nc3ccc(-c4cnn(C)c4)cc3P(C)(C)=O)n2)c(OC)cc1N1CCC(N2CCOCC2)CC1` [Compound K-042, (2-((5-Bromo-2-((5-ethyl-2-methoxy-4-(4-morpholinopiperidin-1-vi)phenyl)amino)pyrimidin-4-yl)amino)-5-(1-methyl-1-pyrazol-4-yl)phenyl)-dimethylphosphine oxide], the IC50 in experiment [1] turned out to be 15.9 nM; in experiment [3], 0.4 nM; in experiment [4], 815 nM; in experiment [6], 71 nM. In addition, the figures for the GI50 in experiment [2] and in experiment [5] were 206 nM and 4.3 nM, respectively.
As for `CCCc1cc(Nc2ncc(Br)c(Nc3ccc(-c4cnn(C)c4)cc3P(C)(C)=O)n2)c(OC)cc1N1CCC(N2CCN(C)CC2)CC1` [Compound K-043, (2-((5-Bromo-2-((2-methoxy-4-(4-(4-methylpiperazin-1-yl)piperidin-1-yl)-5-propylphenyl)amino)pyrimidin-4-yl)amino)-5-(1-methyl-1H-pyrazol-4-yl)phenyl)dimethylphosphine oxide], the IC50 in experiment [1] is 14.2 nM; in experiment [3], 0.5 nM; in experiment [4], 456 nM; in experiment [6], 30.2 nM. The GI50 in experiment [2] was 127 nM; in experiment [5] it was 4.3 nM.
As for `CCc1cc(Nc2ncc(Br)c(Nc3ccc(-c4cnn(C)c4)cc3P(C)(C)=O)n2)c(OC)cc1N1CCC(N(C)C)CC1` [Compound K-044, (2-((5-Bromo-2-((4-(4-(dimethylamino)piperidin-1-yl)-5-ethyl-2-methoxyphenyl)amino)pyrimidin-4-yl)amino)-5-(1-methyl-1H-pyrazol-4-yl)phenyl)dimethylphosphine oxide], the IC50 in experiment [1] stood at 8.2 nM; in experiment [3], 0.3 nM; in experiment [4], 280 nM; in experiment [6] it was 38.2 nM. Also, the GI50 in experiment [2] is 166 nM; in experiment [5], 3.8 nM.
Take `CCc1cc(Nc2ncc(Br)c(Nc3ccc(-c4cnn(C)c4)c(C)c3P(C)(C)=O)n2)c(OC)cc1N1CCC(N2CCN(C)CC2)CC1` [Compound K-046, (6-((5-Bromo-2-((5-ethyl-2-methoxy-4-(4-(4-methylpiperazin-1-yl)piperidin-1-yl)phenyl)amino)pyrimidin-4-yl)amino)-2-methyl-3-(1-methyl-1H-pyrazol-4-yl)phenyl)dimethylphosphine oxide]: the IC50 in experiment [1] worked out at 9.9 nM; in experiment [3], 0.5 nM; in experiment [4], 306 nM; in experiment [6], 28.7 nM. The values for the GI50 in experiment [2] and in experiment [5] were 34.8 nM and 7.6 nM, respectively.
Take `CCc1cc(Nc2ncc(Br)c(Nc3ccc(-c4ccccc4)cc3P(C)(C)=O)n2)c(OC)cc1N1CCC(N2CCOCC2)CC1` [Compound K-047, (4-((5-Bromo-2-((5-ethyl-2-methoxy-4-(4-morpholinopiperidin-1-yl)phenyl)amino)pyrimidin-4-yl)amino)-[1,1′-biphenyl]-3-yl)dimethylphosphine oxide]: the IC50 came to 43 nM in experiment [1], 0.8 nM in experiment [3], 12600 nM in experiment [4] and 217 nM in experiment [6]. For the same compound, the GI50 was found to be 95.6 nM in experiment [2] and 29.8 nM in experiment [5].
Turning to `CCc1cc(Nc2ncc(Br)c(Nc3ccc(-c4ccccc4F)cc3P(C)(C)=O)n2)c(OC)cc1N1CCC(N2CCOCC2)CC1` [Compound K-048], the IC50 in experiment [1] worked out at 77.2 nM; in experiment [3], 1 nM; in experiment [4], 23100 nM; in experiment [6] it was 587 nM. Also, the GI50 in experiment [2] is 156 nM; in experiment [5] it was 12.9 nM.
In the case of `CCc1cc(Nc2ncc(Br)c(Nc3ccc(-c4ccccc4C)cc3P(C)(C)=O)n2)c(OC)cc1N1CCC(N2CCOCC2)CC1` [Compound K-049, (4-((5-Bromo-2-((5-ethyl-2-methoxy-4-(4-morpholinopiperidin-1-yl)phenyl)amino)pyrimidin-4-yl)amino)-2′-methyl-[1,1′-biphenyl]-3-yl)dimethylphosphine oxide], the IC50 in experiment [1] came to 31.7 nM; in experiment [3], 0.8 nM; in experiment [4] it was 1470 nM; in experiment [6], 432 nM. Also, the GI50 in experiment [2] is 373 nM; in experiment [5], 38.4 nM.
Turning to `CCc1cc(Nc2ncc(Br)c(Nc3ccc(-c4ccccc4)c(C)c3P(C)(C)=O)n2)c(OC)cc1N1CCC(N2CCN(C)CC2)CC1` [Compound K-050, (4-((5-Bromo-2-((5-ethyl-2-methoxy-4-(4-(4-methylpiperazin-1-yl)piperidin-1-yl)phenyl)amino)pyrimidin-4-yl)amino)-2-methyl-[1,1′-biphenyl]-3-yl)dimethylphosphine oxide], the IC50 in experiment [1] was determined as 12.3 nM; in experiment [3] it was 1.1 nM; in experiment [4] it was 1030 nM; in experiment [6] it was 121 nM. In addition, the GI50 came out at 218 nM in experiment [2] and 20.6 nM in experiment [5].
With `CCc1cc(Nc2ncc(Br)c(Nc3ccc(-n4cc(OC)cn4)cc3P(C)(C)=O)n2)c(OC)cc1N1CCC(N2CCN(C)CC2)CC1` [Compound K-054, (2-((5-Bromo-2-((5-ethyl-2-methoxy-4-(4-(4-methylpiperazin-1-yl)piperidin-1-yl)phenyl)amino)pyrimidin-4-yl)amino)-5-(4-methoxy-1H-pyrazol-1-yl)phenyl)dimethylphosphine oxide], the IC50 in experiment [1] came out at 32 nM; in experiment [3] it was 0.2 nM; in experiment [4] it was 1510 nM; in experiment [6], 268 nM. The figures for the GI50 in experiment [2] and in experiment [5] were 343 nM and 19.1 nM, respectively.
